Measured values from paper PMC5316807, “Protective role of fructokinase blockade in the pathogenesis of acute kidney injury in mice” (Nature Communications, 2017).

Target: T1, fructokinase (ketohexokinase, KHK) (Homo sapiens, UniProt P50053)
T1 sequence (P50053 1-298): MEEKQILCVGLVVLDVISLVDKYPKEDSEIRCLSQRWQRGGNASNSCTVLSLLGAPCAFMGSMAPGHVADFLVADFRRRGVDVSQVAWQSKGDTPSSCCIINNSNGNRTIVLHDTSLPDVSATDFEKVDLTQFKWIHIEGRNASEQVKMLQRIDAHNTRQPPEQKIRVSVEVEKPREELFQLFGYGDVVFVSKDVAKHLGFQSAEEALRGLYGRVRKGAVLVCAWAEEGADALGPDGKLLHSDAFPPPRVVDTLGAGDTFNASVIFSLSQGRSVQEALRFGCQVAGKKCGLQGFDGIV
Assay: fructose-dependent ATP depletion assay in HK-2 (human proximal tubule) cell lysates, KHK-deficient HK-2 cells as background control
Assay type: biochemical

IC50: 11.2 µM
Compound: O=c1cc(-c2ccc(O)c(O)c2)oc2cc(O)cc(O)c12 [luteolin]
